The values below come from patent US9795625B2, “Uridine and uridine analogues for treatment of specific lung diseases, namely COPD and pulmonary fibrosis” (Universitaetsklinikum Freiburg, priority 2011, dated 2017).

The test system of series [1] is sephadex-induced acute lung inflammation. The conditions noted are these: sephadex-induced acute lung inflammation model; cited from earlier work.
In series [2] the test system is mitochondrial toxicity caused by highly active antiretroviral therapy (HAART). The conditions noted are these: cited from earlier work.
The subject of series [3] is murine model of chronic smoke exposure. Nature of the series: Chronic exposure to cigarette smoke (pulmonary emphysema), lung morphometry. In kind it is in vivo, male C57BL/6 mice. The conditions noted are these: uridine 0.6 mg/kg oral gavage 45 min prior to smoke exposure vs non-uridine treated mice (FIG. 2). An excerpt: The methodology for chronic smoke exposure has been previously described (Cavarra E et al., Human SLPI inactivation after cigarette smoke exposure in a new in vivo model of pulmonary oxidative stress, Am J Physiol Lung Cell Mol Physiol. 2001 August; 281(2):L412-7 Cicko S et al., Purinergic receptor inhibition prevents the development of smoke-induced lung injury and emphysema, J Immunol. 2010 Jul. 1; 185(1):688-97)). Briefly, male C57BL/6 mice were exposed to either the smoke of 3 cigarettes per day (commercial Virginia filter cigarettes: 12 mg of tar and 0.9 mg of nicotine), 5 days per week or to room air (controls) for 4 or 7 months, respectively.
When indicated, animals received an oral treatment by gavage with Uridine (0.6 mg/kg) 45 min prior to smoke exposure.
At the end of the respective time period, animals were sacrificed; BAL was performed followed by lung resection. […] Lung volume was measured by water displacement. […]
This Lm value was used to calculate the ISA (which represent the gas exchange surface), necessary for evaluating the degree of emphysema, from the equation 4V/Lm, where V is the postfixation lung volume. For the determination of the Lm for each pair of lungs, 40 histological fields were evaluated both vertically and horizontally.
Statistical significance of differences between samples was calculated using ANOVA, followed by Bonferroni comparison test. […]

The subject of series [4] is BLM-induced pulmonary fibrosis. Kind of series: Mouse model of bleomycin (BLM) induced pulmonary fibrosis. In kind it is in vivo, male C57/B16 mice. On the procedure:
The induction of BLM induced pulmonary fibrosis was performed as previously described (Gasse P, Mary C, Guenon I, Noulin N, Charron S, Schnyder-Candrian S, Schnyder B, Akira S, Quesniaux V F, Lagente V, et al. II-1r1/myd88 signaling and the inflammasome are essential in pulmonary inflammation and fibrosis in mice. J Clin Invest 2007; 117(12):3786-3799). Then, male C57/B16 animals were treated with the uridine p.o. (200 μl 10 mM) or vehicle 14 days after BLM-instillation for 3 days a week. At day 30 animals were examined for the typical features of BLM-induced lung injury. Therefore BALF was collected and differential cell count was analyzed as described above.
(§1) Cytokine concentrations in BALF were measured using commercially available ELISA kits (R&D Systems, Minneapolis, Minn.) according to the manufacturer's recommendations.
The amount of lung collagen was measured in the lung tissue using the Sircol-assay according to the manufacturer's recommendations (Biocolor, Life-Science, UK).
(§2) Statistical significance of differences between samples was calculated using ANOVA, followed by Bonferroni comparison test. Difference were considered significant if p<0.05.

Series [5] deals with asthmatic airway inflammation. Particulars: OVA-alum model and HDM model in mice, local administration; cited from earlier work.
The test system of a further series is smoke exposed mice. Kind of series: Acute cigarette smoke exposure, i.t. uridine, BAL fluid analysis. The class given is in vivo, Male C57BL/6 mice. As to the method:
Male C57BL/6 mice were exposed to whole smoke of five cigarettes (commercial Virginia filter cigarettes: 12 mg of tar and 0.9 mg of nicotine) or room air for 20 min on three consecutive days in especially designed macrolon cages (Tecniplast, Buguggiate, Italy), as previously described (Cavarra E et al., Human SLPI inactivation after cigarette smoke exposure in a new in vivo model of pulmonary oxidative stress, Am J Physiol Lung Cell Mol Physiol. 2001 August; 281(2):L412-7, Cicko S et al., Purinergic receptor inhibition prevents the development of smoke-induced lung injury and emphysema, J Immunol. 2010 Jul. 1; 185(1):688-97). The smoke was produced by the burning of a cigarette and was introduced into the chamber with the airflow generated by a mechanical ventilator (7025 Rodent Ventilator, Ugo Basile, Biological Research Instruments, Comerio, Italy), at a rate of 250 ml/min. A second mechanical ventilator was used to provide room air for dilution (1:8) of the smoke-stream.
In some experiments, intratracheal treatment (i.t.) was performed prior to each smoke exposure: animals were anaesthetized by intraperitoneal injection of Ketamin/Xylazin and received an i.t. injection of uridine in a total volume of 80 μl (1 mM or 10 mM) or PBS which was used as vehicle. One hour after the last smoke challenge, mice were sacrificed and bronchoalveolar lavage (BAL) was performed.
BAL fluid was collected by cannulating the trachea under deep pentobarbital anesthesia and washing the lung three times with 1 ml PBS containing 0.1 mM EDTA, as previously described (Idzko M et al., Extracellular ATP triggers and maintains asthmatic airway inflammation by activating dendritic cells, Nat Med. 2007 Aug.; 13(8):913-9, Cicko S et al., Purinergic receptor inhibition prevents the development of smoke-induced lung injury and emphysema, J Immunol. 2010 Jul. 1; 185(1):688-97). Total cell numbers were counted and differential cell counts were performed on cytospin preparations after staining with Diff-Quick (Medion Diagnostics, Dudingen, Switzerland). Differential cell counts were made on >200 cells using standard morphological criteria and FACS-analysis.
After counting and washing, BAL cells were stained for 30 min with anti-MHC class II (macrophages/DC), anti-7/4 (Caltag) FITC (neutrophiles; Abd-Serotec, Düsseldorf, Germany), anti-CD3 and anti-CD19 cy-chrome (lymphocytes), and anti-CD 11c APC macrophages/DCs (eBioscience, San Diego, Calif.) in PBS containing 0.5% BSA and 0.01% sodium azide. Differential cell counts were analyzed by flow cytometry, as described previously (Idzko M et al., Extracellular ATP triggers and maintains asthmatic airway inflammation by activating dendritic cells, Nat Med. 2007 Aug.; 13(8):913-9 and Cicko S et al., Purinergic receptor inhibition prevents the development of smoke-induced lung injury and emphysema, J Immunol. 2010 Jul. 1; 185(1):688-97).
To measure ATP concentrations in BALF in mice, fresh BALF supernatants were used, according to manufacturer's instructions (ATPlite Assay, PerkinElmer, Wellesley Mass.), but without the cell lysis step to avoid any contaminating intracellular ATP, as described previously (Idzko M et al., Extracellular ATP triggers and maintains asthmatic airway inflammation by activating dendritic cells, Nat Med. 2007 Aug.; 13(8):913-9 Cicko S et al., Purinergic receptor inhibition prevents the development of smoke-induced lung injury and emphysema, J Immunol. 2010 Jul. 1; 185(1):688-97)).
as §1, §2

Setting [6] is: BALF, uridine p.o. 200 μl 10 mM, day 30.
Where [7] appears, read: uridine p.o. 200 μl 10 mM, day 30.
[8] abbreviates: BALF, uridine i.t. 1 mM or 10 mM.

Regarding `O=c1[nH]c(=S)ccn1[C@@H]1O[C@H](CO)[C@@H](O)[C@H]1O` [4-thiouridine], in series [1], the anti-inflammatory effects entry is “anti-inflammatory effects similar to those of uridine”.

In the case of `O=c1ccn([C@@H]2O[C@H](CO)[C@@H](O)[C@H]2O)c(=O)[nH]1` [uridine], the “efficacy in reduction of mitochondrial toxicity” value in series [2] (human, HAART) was “efficacious”. Further, the safety entry in series [2] (in vivo) is listed as “safe”. Besides, in series [3], the “internal surface area of the lung” value is given as “higher” and the mean linear intercept entry is listed as “significantly lower”. Besides, in series [4] (setting [6]), the IL-1 beta result is given as “down-regulation”, the IL-6 result was “down-regulation”, the KC result is recorded as “down-regulation” and the TNFalpha result is “down-regulation”. The BLM-induced pulmonary fibrosis result in series [4] (uridine p.o 3×/week from day 14, day 30 (FIG. 3)) is listed as “decreases”. Besides, the “amount of collagen in the lung” value in series [4] (uridine p.o. 200 μl 10 mM 3 days a week from day 14, day 30) is listed as “significantly reduce”. Further, the TIMP-1 entry in series [4] (uridine p.o. 200 μl 10 mM, after bleomycin instillation (FIG. 3)) is “reduced to normal levels”. Further, in series [4] (setting [7]), the “lymphocytes in BALF” value is reported as “down-regulation”, the “macrophages in BALF” value is recorded as “down-regulation” and the “neutrophils in BALF” value is “down-regulation”. The asthmatic airway inflammation entry in series [5] was “suppress”. Further, in the series on smoke exposed mice (setting [8]), the “level of IFN-γ” value was “dose dependently reduced”, the “level of IL-1β” value is recorded as “dose dependently reduced”, the “level of IL-6” value was “dose dependently reduced” and the “level of KC” value is on record as “dose dependently reduced”. Moreover, in the series with smoke exposed mice (setting [8]), the “level of MIP-2” value is listed as “dose dependently reduced”, the number of macrophages result is recorded as “dose dependently reduced” and the number of neutrophils result is reported as “dose dependently reduced”. The “amount of extracellular ATP in BALF” value in the series on smoke exposed mice (uridine i.t. 80 μl 1 mM or 10 mM vs non uridine treated mice (FIG. 1b)) is “significantly be reduced in a dose dependent manner”.
